How the values were obtained:
tau protein = target: T1, tau protein (Homo sapiens, UniProt P10636); assay: Tau-BiFC cell model, inhibition of Forskolin-induced tau protein aggregation; assay type: cell-based; details: Forskolin 30 μM, 48 hours; for Tau BiFC in cells Response (% @10 μM): 10 μM compound, Forskolin-only group = 100% tau protein-aggregated state; for IC50: tau-BiFC cells
T1 construct: BiFC fluorescent-protein fragments (type and halves not specified); expressed in transfected cells
In short: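 Tau-BiFC cells co-treated 48 h with 30 μM forskolin and compounds (1, 3, 10 μM screen; 0.01–30 μM dose-response). BiFC fluorescence normalized to forskolin-only (100% aggregation) minus untreated gives aggregation inhibition and IC50; viability as Hoechst-stained nuclei count relative to forskolin-only.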

CYP2C9 = target: T2, CYP2C9 (Homo sapiens, UniProt P11712); assay: Inhibitory effect on CYP coenzyme activity, human liver microsomes; assay type: in vitro ADME; details: 10 μM compound, human liver microsomes 0.25 mg/mL, substrate diclofenac, 15 minutes
T2 construct: human liver microsomes (0.25 mg/mL); from tissue; host or cells: human liver microsomes
T2 sequence (P11712 whole entry): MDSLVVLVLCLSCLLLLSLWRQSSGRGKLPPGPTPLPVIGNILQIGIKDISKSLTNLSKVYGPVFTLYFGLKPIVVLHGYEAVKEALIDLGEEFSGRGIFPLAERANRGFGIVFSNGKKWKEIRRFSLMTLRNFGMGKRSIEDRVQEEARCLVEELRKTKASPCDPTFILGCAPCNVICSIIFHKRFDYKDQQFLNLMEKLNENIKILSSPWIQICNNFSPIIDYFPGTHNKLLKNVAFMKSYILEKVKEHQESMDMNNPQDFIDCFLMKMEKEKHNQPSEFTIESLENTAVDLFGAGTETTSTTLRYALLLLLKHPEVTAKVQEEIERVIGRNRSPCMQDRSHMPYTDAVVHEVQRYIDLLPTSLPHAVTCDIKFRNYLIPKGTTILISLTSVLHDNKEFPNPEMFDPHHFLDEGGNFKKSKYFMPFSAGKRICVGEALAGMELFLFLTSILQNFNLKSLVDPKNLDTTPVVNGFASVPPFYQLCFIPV
In short: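 Cocktail inhibition: HLM 0.25 mg/mL, 0.1 M PO4 pH 7.4, 37 °C; 5 min preinc., then 15 min + NADPH regen.; cpd 10 μM; probes phenacetin/diclofenac/S-mephenytoin/dextromethorphan/midazolam at 50/10/100/5/2.5 μM; LC-MS/MS MRM; % remaining activity vs no-compound control.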

CYP3A4 = target: T3, CYP3A4 (Homo sapiens, UniProt P08684); assay: as above; assay type: in vitro ADME; details: 10 μM compound, human liver microsomes 0.25 mg/mL, substrate midazolam, 15 minutes
T3 construct: human liver microsomes (0.25 mg/mL); from tissue; host or cells: human liver microsomes
T3 sequence (P08684 whole entry): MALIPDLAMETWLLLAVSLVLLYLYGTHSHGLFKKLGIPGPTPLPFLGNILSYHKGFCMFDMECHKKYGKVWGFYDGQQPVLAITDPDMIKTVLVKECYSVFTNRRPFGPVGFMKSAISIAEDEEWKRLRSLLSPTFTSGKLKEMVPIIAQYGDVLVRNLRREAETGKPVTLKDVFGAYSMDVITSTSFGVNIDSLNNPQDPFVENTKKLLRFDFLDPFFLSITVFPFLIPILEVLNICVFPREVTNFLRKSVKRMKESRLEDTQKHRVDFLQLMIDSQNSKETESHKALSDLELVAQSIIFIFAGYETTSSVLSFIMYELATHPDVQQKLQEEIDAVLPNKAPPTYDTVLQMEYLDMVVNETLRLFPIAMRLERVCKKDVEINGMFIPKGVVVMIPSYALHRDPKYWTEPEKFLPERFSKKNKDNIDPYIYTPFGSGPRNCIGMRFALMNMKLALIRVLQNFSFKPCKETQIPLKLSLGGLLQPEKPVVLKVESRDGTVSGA
In short: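 Activity (% of vehicle control) from LC-MS/MS MRM quantitation of substrate metabolites. HLM 0.25 mg/mL, pH 7.4 phosphate, cocktail of phenacetin 50 μM, diclofenac 10 μM, S-mephenytoin 100 μM, dextromethorphan 5 μM, midazolam 2.5 μM; test compound 10 μM; 37 °C, 5 min preincubation plus 15 min with NADPH system.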

[1] = Liver microsome stability; assay type: in vitro ADME; details: 1 μM compound, 37° C., 30 minutes, NADPH; for Dog (%) amount of substrate remaining after the reaction: dog liver microsomes 0.25 mg/mL; for Human (%) amount of substrate remaining after the reaction: human liver microsomes 0.25 mg/mL; for Mouse (%) amount of substrate remaining after the reaction: mouse liver microsomes 0.25 mg/mL; for Rat (%) amount of substrate remaining after the reaction: rat liver microsomes 0.25 mg/mL
Protocol: The stability of liver microsomes due to the compounds prepared according to Examples 1 to 57 was confirmed. Specifically, four types of liver microsomes (human, dog, rat, and mouse, each 0.25 mg/mL), a 0.1 M phosphate buffer solution (pH 7.4), and each of the compounds at a concentration of 1 μM were mixed and pre-cultured at 37° C. for 5 minutes and further cultured at 37° C. for 30 minutes together with an NADPH generation system solution added thereto. Thereafter, the reaction was terminated by adding an acetonitrile solution containing an internal standard material (chloropropamide) and centrifuged for 5 minutes (14,000 rpm, 4° C.), and then a supernatant was injected into an LC-MS/MS system for analysis of substrate drugs to thereby evaluate metabolic stability due to 8 types of compounds.
The amount of the substrate remaining after the reaction was analyzed using the Shimadzu Nexera XR system and TSQ Vantage (Thermo). In an HPLC column, Kinetex XB-C18 (2.1 mm×100 mm, particle size of 2.6 μm; Phenomenex, USA) was used, and mobile phases were (A) distilled water containing 0.1% formic acid and (B) acetonitrile containing 0.1% formic acid. Analyst software (version 1.6.3) and Xcalibur (version 1.6.1) were used for data analysis.

T1 sequence (P10636 1-441 isoform P10636-8): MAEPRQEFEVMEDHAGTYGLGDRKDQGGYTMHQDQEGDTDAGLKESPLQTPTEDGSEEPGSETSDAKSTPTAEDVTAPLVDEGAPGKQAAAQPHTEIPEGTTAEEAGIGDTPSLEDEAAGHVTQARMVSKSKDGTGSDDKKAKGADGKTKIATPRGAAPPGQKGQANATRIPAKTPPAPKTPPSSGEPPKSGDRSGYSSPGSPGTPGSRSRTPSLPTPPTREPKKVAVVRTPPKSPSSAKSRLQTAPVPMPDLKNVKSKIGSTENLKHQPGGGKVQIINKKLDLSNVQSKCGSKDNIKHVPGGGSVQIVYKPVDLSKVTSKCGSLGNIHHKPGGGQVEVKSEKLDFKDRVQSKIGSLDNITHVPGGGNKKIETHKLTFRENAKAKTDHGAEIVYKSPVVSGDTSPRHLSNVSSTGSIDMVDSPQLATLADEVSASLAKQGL

Row | SMILES | Tau BiFC in cells Response (% @10 μM) (tau protein) | IC50 (tau protein) | CYP2C9 coenzyme activity (%) with respect to control group not treated (CYP2C9) | CYP3A4 coenzyme activity (%) with respect to control group not treated (CYP3A4) | Dog (%) amount of substrate remaining after the reaction [1] | Human (%) amount of substrate remaining after the reaction [1] | Mouse (%) amount of substrate remaining after the reaction [1] | Rat (%) amount of substrate remaining after the reaction [1]
1 | N#CC(C#N)=NNc1ccc2c(c1)n(C(F)F)c(=O)n2C(F)F [Compound 24, (1,3-bis(difluoromethyl)-2-oxo-2,3-dihydro-1H-benzo[d]imidazol-5-yl)carbonohydrazonoyl dicyanide] | 0% | 200 nM | 40.6% | 78.1% | 88.1% | 88.2% | 84.1% | 86.8%
2 | Cn1c(=O)oc2cc(NN=C(C#N)C#N)ccc21 [Compound 16, (3-methyl-2-oxo-2,3-dihydrobenzo[d]oxazol-6-yl)carbonohydrazonoyl dicyanide] | 0% | 600 nM | 54.9% | 99.8% | 95.7% | 98.9% | 81% | 89.1%
3 | CCn1c(=O)n(C)c2cc(NN=C(C#N)C#N)cnc21 [Compound 48, (3-ethyl-1-methyl-2-oxo-2,3-dihydro-1H-imidazo[4,5-b]pyridin-6-yl)carbonohydrazonoyl dicyanide] | −18% | 60 nM | >100% | >100% |  | 96.7% | >100% | 96.3%
4 | Cn1ccc2c(NN=C(C#N)C#N)cccc2c1=O [Compound 5, (2-methyl-1-oxo-1,2-dihydroisoquinolin-5-yl)carbonohydrazonoyl dicyanide] | 0% |  | 29.1% | 88.6% | >100% | 98.1% | 92.9% | >100%
5 | N#CC(C#N)=NNc1cccc2c(=O)[nH]ccc12 [Compound 4, (1-oxo-1,2-dihydroisoquinolin-5-yl)carbonohydrazonoyl dicyanide] | 0% | 1800 nM | 59.3% | 81.6% | >100% | >100% | >100% | 94.5%
6 | CC(C)n1ccc2ccc(NN=C(C#N)C#N)cc2c1=O [Compound 3, (2-isopropyl-1-oxo-1,2-dihydroisoquinolin-7-yl)carbonohydrazonoyl dicyanide] | 0% | 200 nM | 78.5% | >100% | 6.4% | 57.4% | 10.1% | 44.4%
7 | Cc1cc2c(NN=C(C#N)C#N)cccc2c(=O)n1C [Compound 7, (2,3-dimethyl-1-oxo-1,2-dihydroisoquinolin-5-yl)carbonohydrazonoyl dicyanide] | 0% | 200 nM | 29.8% | 72% | 95.7% | 96% | 93.3% | 89.7%
8 | Cn1c(=O)n(C)c2cc(NN=C(C#N)C#N)ccc21 [Compound 22, (1,3-dimethyl-2-oxo-2,3-dihydro-1H-benzo[d]imidazol-5-yl)carbonohydrazonoyl dicyanide] | 0% | 200 nM | 99% | >100% | 92.2% | 80.6% | 63.1% | 91.6%
9 | N#CC(C#N)=NNc1ccc2c(c1)sc(=O)n2C(F)F [Compound 19, (3-(difluoromethyl)-2-oxo-2,3-dihydrobenzo[d]thiazol-6-yl)carbonohydrazonoyl dicyanide] | 0% | 100 nM | 23.3% | 81.8% | 80.4% | 99.7% | 58.7% | 69.7%
10 | CC(C)n1c(=O)n(C(C)C)c2ncc(NN=C(C#N)C#N)cc21 [Compound 34, (1,3-diisopropyl-2-oxo-2,3-dihydro-1H-imidazo[4,5-b]pyridin-6-yl)carbonohydrazonoyl dicyanide] | −45% | 50 nM | 41.9% | 90.2% |  | >100% | 86.6% | 57.5%
11 | CCn1c(=O)n(C)c2cc(NN=C(C#N)C#N)ccc21 [Compound 38, (1-ethyl-3-methyl-2-oxo-2,3-dihydro-1H-benzo[d]imidazol-5-yl)carbonohydrazonoyl dicyanide] | −31% | 30 nM | 92.6% | >100% |  | 95% | 81.6% | 91.8%
12 | Cn1c(=O)n(C)c2ncc(NN=C(C#N)C#N)cc21 [Compound 12, (1,3-dimethyl-2-oxo-2,3-dihydro-1H-imidazo[4,5-b]pyridin-6-yl)carbonohydrazonoyl dicyanide] | 0% | 870 nM | 93.4% | >100% | >100% | >100% | >100% | 94.9%
13 | Cn1c(=O)[nH]c2cc(NN=C(C#N)C#N)ccc21 [Compound 17, (1-methyl-2-oxo-2,3-dihydro-1H-benzo[d]imidazol-5-yl)carbonohydrazonoyl dicyanide] | 0% | 1200 nM | 81.2% | 89% | >100% | >100% | 95.7% | >100%

— patent publication US12590066B2, “Fused-heterocyclyl-carbonohydrazonoyl dicyanide compounds and use thereof” (KOREA INSTITUTE OF SCIENCE AND TECHNOLOGY, priority 2020, dated 2026)
